Experimental data reported in ChEMBL document CHEMBL1201862, “PubChem BioAssay data set” (2004).
Active and inactive are the calls of the source.

Columns and labels:
[1] = molecular target: Sphingosine 1-phosphate receptor 1 (Homo sapiens, UniProt P21453); assay: Fluorescence-based counterscreen assay for S1P4 agonists: Cell-based dose response high throughput screening assay to identify agonists of the Sphingosine 1-Phosphate Receptor 1 (S1P1). [Related pubchem assays (depositor defined):AID1509, AID1523, AID1801, AID463107, AID463118, AID463119, AID463122, AID463123, AID463129, AID463225, AID504400, AID504460]; assay type: functional
[2] = molecular target: T1, Sphingosine 1-phosphate receptor 4 (Homo sapiens, UniProt O95977); assay: Fluorescence dose response cell-based high throughput screening assay for agonists of the Sphingosine 1-Phosphate Receptor 4 (S1P4). [Related pubchem assays: 1509 (Primary screen.), 1523 (Confirmation screen in triplicates.)]; assay type: functional
T1 sequence (O95977 whole entry): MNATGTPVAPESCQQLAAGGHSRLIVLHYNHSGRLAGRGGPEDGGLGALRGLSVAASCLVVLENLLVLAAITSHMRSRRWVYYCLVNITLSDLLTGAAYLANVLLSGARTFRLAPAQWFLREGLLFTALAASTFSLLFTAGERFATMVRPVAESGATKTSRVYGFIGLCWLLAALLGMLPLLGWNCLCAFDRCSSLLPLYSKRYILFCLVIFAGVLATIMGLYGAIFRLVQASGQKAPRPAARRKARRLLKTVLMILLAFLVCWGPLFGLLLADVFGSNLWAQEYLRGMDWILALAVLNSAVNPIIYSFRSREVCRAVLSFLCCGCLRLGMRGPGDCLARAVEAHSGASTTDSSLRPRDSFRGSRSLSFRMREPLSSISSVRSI

Vero = Vero cell cytotoxicity, cytotoxicity control for flavivirus capping enzyme inhibitors (AID 588742); assay type: functional; conditions: Chlorocebus sabaeus
[3] = molecular target: G-protein coupled receptor 55 (Homo sapiens, UniProt Q9Y2T6); assay: GPR55 antagonists blocking LPI-driven arrestin recruitment, primary screen, imaging, U2OS, beta-arrestin-GFP, LPI agonist (AID 2013); assay type: functional;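 note: antagonist potency measured as reduced agonist-driven arrestin aggregation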
[4] = Luminescence Cell-Based Dose Retest to Confirm Inhibitors of Cancer Stem Cells. [Related pubchem assays (depositor defined):AID2717, AID2721]; assay type: functional; conditions: Homo sapiens
[5] = molecular target: Peroxisome proliferator-activated receptor alpha (Homo sapiens, UniProt Q07869); assay: Late stage assay provider counterscreen for partial agonists of the peroxisome proliferator-activated receptor gamma (PPARg): Luminescence-based cell-based dose response assay for partial agonists of the peroxisome proliferator-activated receptor alpha (PPARA). [Related pubchem assays (depositor defined):AID1051, AID1300, AID1319, AID1679, AID1808, AID504446, AID504447, AID504452, AID504453, AID631]; assay type: functional
[6] = molecular target: T2, Peroxisome proliferator-activated receptor gamma (Homo sapiens, UniProt P37231); assay: PPARg ligand-binding domain binders, dose response, PPARg partial agonist project, biochemical, TR-FRET, LanthaScreen (AID 504446)
T2 sequence (P37231 whole entry): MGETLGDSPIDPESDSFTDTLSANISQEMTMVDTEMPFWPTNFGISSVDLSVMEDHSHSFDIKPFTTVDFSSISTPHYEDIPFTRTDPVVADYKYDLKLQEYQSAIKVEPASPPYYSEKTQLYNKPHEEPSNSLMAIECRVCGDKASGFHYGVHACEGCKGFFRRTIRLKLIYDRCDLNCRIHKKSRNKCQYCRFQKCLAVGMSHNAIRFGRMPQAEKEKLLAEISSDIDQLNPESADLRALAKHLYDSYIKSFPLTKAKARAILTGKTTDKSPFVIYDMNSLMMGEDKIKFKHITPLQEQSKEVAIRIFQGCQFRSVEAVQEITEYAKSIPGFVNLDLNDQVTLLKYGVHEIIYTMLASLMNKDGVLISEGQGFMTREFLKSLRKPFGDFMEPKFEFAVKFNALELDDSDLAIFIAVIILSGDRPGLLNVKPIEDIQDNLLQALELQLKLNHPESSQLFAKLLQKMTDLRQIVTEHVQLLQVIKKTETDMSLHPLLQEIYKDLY

[7] = molecular target: T2, Peroxisome proliferator-activated receptor gamma; assay: PPARg ligand-binding domain binders, dose response, PPARg partial agonist project, biochemical, fluorescence polarization, PolarScreen (AID 504453)
[8] = molecular target: T2, Peroxisome proliferator-activated receptor gamma; assay: PPARg partial agonists, dose response, cell-based, luminescence, assay provider (AID 504447); assay type: functional
[9] = HIV-1 Env-mediated cell fusion inhibitors, dose response, CCR5-tropic Env (AID 2279); assay type: functional
[10] = molecular target: Peroxisome proliferator-activated receptor gamma/Nuclear receptor coactivator 3 (Homo sapiens, UniProt P37231); assay: TR-FRET dose response biochemical High Throughput Screening assay for agonists of the steroid receptor coactivator 3 (SRC-3) recruitment by the peroxisome proliferator-activated receptor gamma (PPAR gamma): non-selective agonists. [Related pubchem assays: 1301 (Confirmation screen.), 1048 (Primary screen.)]; assay type: functional
[11] = molecular target: Peroxisome proliferator-activated receptor gamma/Nuclear receptor coactivator 2 (Homo sapiens, UniProt P37231); assay: (§1) TR-FRET dose response biochemical High Throughput Screening assay for agonists of the steroid receptor coactivator 2 (SRC-2) recruitment by the peroxisome proliferator-activated receptor gamma (PPAR gamma): non-selective agonists. [Related pubchem assays: 1297, 1032 ]; assay type: functional
[12] = molecular target: Peroxisome proliferator-activated receptor gamma/Nuclear receptor coactivator 1 (Homo sapiens, UniProt P37231); assay: as §1, with “1 (SRC-1)” for “2 (SRC-2)”, “assays (depositor defined):AID1300, AID1808, AID504735, AID631]” for “assays: 1297, 1032 ]”; assay type: protein assay
[13] = molecular target: Mitogen-activated protein kinase 10 (Homo sapiens, UniProt P53779); assay: Dose response biochemical screening assay for inhibitors of c-Jun N-Terminal Kinase 3 (JNK3). [Related pubchem assays: 746 ]
Major prion protein = Major prion protein (Homo sapiens, UniProt P04156); assay type: functional, cell-based
[14] = molecular target: Kappa-type opioid receptor (Homo sapiens, UniProt P41145); assay: SAR analysis of small molecule agonists of the kappa opioid receptor via a luminescent beta-arrestin assay - Set 3. [Related pubchem assays (depositor defined):AID1777, AID1785, AID1786, AID1966, AID2133, AID2136, AID2284, AID2500]; assay type: functional
fMet-Leu-Phe receptor = molecular target: T3, fMet-Leu-Phe receptor (Homo sapiens, UniProt P21462); assay: FPR ligands, dose response (AID 519); assay type: functional
T3 sequence (P21462 whole entry): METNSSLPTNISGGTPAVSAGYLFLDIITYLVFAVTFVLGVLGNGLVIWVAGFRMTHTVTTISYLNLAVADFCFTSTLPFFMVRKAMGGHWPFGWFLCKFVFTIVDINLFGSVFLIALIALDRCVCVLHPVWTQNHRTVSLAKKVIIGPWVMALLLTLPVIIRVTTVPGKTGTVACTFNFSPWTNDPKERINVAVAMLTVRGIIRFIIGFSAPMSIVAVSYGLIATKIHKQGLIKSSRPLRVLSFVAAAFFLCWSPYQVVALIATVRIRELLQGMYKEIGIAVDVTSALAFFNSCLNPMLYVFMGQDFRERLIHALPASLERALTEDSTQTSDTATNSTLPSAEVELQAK

[15] = molecular target: T4, Tyrosine-protein phosphatase non-receptor type 22 (Homo sapiens, UniProt Q9Y2R2); assay type: functional
T4 sequence (Q9Y2R2 whole entry): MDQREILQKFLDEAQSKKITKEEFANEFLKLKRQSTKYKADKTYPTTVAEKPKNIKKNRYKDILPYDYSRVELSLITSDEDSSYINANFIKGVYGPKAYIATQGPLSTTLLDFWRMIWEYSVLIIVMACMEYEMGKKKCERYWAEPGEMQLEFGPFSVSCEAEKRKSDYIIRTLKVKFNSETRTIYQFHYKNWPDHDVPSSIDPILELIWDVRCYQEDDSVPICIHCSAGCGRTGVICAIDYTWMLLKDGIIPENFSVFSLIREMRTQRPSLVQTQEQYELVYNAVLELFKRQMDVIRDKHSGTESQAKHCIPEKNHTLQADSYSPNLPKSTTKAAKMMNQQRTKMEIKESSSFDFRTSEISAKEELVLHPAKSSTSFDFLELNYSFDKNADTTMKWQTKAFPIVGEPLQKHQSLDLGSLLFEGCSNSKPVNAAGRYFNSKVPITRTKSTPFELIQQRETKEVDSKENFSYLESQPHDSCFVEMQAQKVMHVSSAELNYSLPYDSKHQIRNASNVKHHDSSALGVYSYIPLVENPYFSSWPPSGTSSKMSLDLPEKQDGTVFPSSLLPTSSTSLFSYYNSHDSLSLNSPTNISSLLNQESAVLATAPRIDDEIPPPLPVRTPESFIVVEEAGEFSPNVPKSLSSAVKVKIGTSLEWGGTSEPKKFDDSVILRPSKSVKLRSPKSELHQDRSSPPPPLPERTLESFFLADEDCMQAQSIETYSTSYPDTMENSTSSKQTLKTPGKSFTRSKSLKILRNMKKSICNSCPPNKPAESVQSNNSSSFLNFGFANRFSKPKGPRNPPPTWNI

[16] = Vero cell cytotoxicity, dose response, cytotoxicity control for Vif-APOBEC3G degradation inhibitor project, Vero cells (AID 1117358); assay type: functional; conditions: Human immunodeficiency virus 1, Vero
[17] = molecular target: Tyrosine-protein phosphatase non-receptor type 7 (Homo sapiens, UniProt P35236); assay type: functional
[18] = molecular target: T4, Tyrosine-protein phosphatase non-receptor type 22; assay type: functional; remark: listed apart in the source
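Throughout, for AC50: cells exposed to compound for roughly 70 hours or longer before luminescence read.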

Clc1ccc(/C=C\c2[nH]ccc3c4ccccc4nc2-3)cc1
EC50 [1]: 2.18 µM (active) | EC50 [2]: 4.41 µM (active)

COc1ccc(-c2nn(-c3ccccc3)cc2/C=C2/SC(=S)N(CCC(=O)O)C2=O)c(C)c1
CC50 (Vero): > 40 µM (active) | IC50 [3]: 665 nM (active) | AC50 [4]: 9.19 µM (active) | EC50 [5]: > 3 µM (inactive) | IC50 [6]: 194 nM (active) | IC50 [7]: 152 nM (active) | EC50 [8]: 283 nM (active) | IC50 [9]: 47.4 µM (active)

CC(Sc1ccc2ccccc2n1)C(=O)O (configuration not stated)
EC50 [10]: > 79.4 µM (not active) | EC50 [11]: > 79.4 µM (not active) | EC50 [12]: > 79.4 µM (inactive) | IC50 (cells): > 138 µM (inactive) | IC50 [13]: 4.87 µM (active) | IC50 (Major prion protein): 1.56 µM (active)

FC(F)(F)c1cc(CSc2nnc(-c3ccccn3)n2Cc2ccccc2Cl)ccc1Cl
EC50 [14]: 4.3 µM (active)

O=C(O)CCCNc1cc(N2CCC3(CC2)OCCO3)c2noc3c2c1C(=O)c1ccccc1-3
Ki (fMet-Leu-Phe receptor): 34.1 µM (inactive) | IC50 [15]: 61.9 µM (active) | CC50 [16]: > 40 µM (active) | IC50 [17]: 69.3 µM (active) | IC50 [18]: 68.9 µM (active)
